Patent US10556860B2, “hTERT modulators and methods of use” (Arizona Board of Regents on Behalf of the University of …, priority 2015, dated 2020)

Assays:
hTERT protein = test: Western blot of hTERT protein in MCF7 cells; assay type: cell-based, human
Description: Western blot analysis. GTC365- or DMSO-treated MCF7 cells were lysed by RIPA buffer and the supernatant of lysate was obtained by centrifugation at 14,000 rpm for 15 min. The concentration of the whole cellular protein was determined by Bradford assay. The same amount of proteins (120 μg) was separated on 8% SDS-PAGE and transferred to PVDF membrane in 20% MeOH/1× Tris-glycine. The membrane was incubated in a blocking buffer containing 5% BSA/5% non-fat milk with TBS-T (0.1% Tween 20) for 90 min at room temperature prior to overnight incubation with hTERT antibody against rabbit (1:200, Santa Cruz #H231, pAb) in 5% BSA/TBS-T buffer at 4° C. […]
Immunoblot analysis. […] The concentration of the whole cellular protein was determined byBradford assay. […]
BCL2 is a downstream molecule to hTERT such that BCL2 expression is activated by hTERT to repress apoptosis. To further define the effect of GTC365 on the transcription of hTERT, the relative mRNA levels of MYC and BCL2 were determined by quantitative PCR analysis in MCF7 cells after treatment with GTC365 for 72 h. […] A series of GTC260 analogs were synthesized and their effect on hTERT gene expression in MCF7A and U87 cells determined (FIG. 7). […]

[1] = test system: hTERT mRNA in melanoma cell line (UACC-903); test: qPCR of hTERT expression in G124A mutant melanoma cell line; assay type: cell-based, human; settings: 5 μM, 72 h
Description: (§1) FIGS. 13A-13C are a set of graphs showingselective reduction in viability (A) and hTERT expression (B) in melanoma cells carrying hTERT core promotor mutations. NHM-002 (normal human melanocytes) and a G124A mutant cell line were treated with vehicle, 1.25, 2.5, and 5 μM GTC365 for 72 h. Viability was reduced in hTERT mutant melanoma cells by 50% (left). […] (C) Differential response to GTC365 in WT and promoter mutant cell lines.
(§2) Next, to assess the selectivity of GTC365 for hTERT-dependent cancer cells relative to normal precursorcells, we compared the effects of a range of […] on viability at 72 h in normal humanmelanocytes (NHM-002) relative to those of UACC-903, aG124A mutant (FIG. 13A). […] To confirm that the reduction in cell viability was aresult of hTERT downregulation, we performed reverse transcription and qPCR to measure the mRNA level of hTERT expression in cells treated with DMSO or 5 μMGTC365. hTERT expression was reduced by 41% in themelanoma cell line after 72 h but was undetectable in normalmelanocytes, even in the absence of GTC365 (FIG. 13B). Finally, tobroadly assess the selectivity of GTC365 for hTERT promotermutant versus WT cells, we conducted a 6-point 72 h MTSproliferation assay to determine EC50s in 14 additional melanoma cell lines with characterized TERT promoter status([…]) (FIG. 13C). […]

[2] = test system: melanoma cell lines with characterized TERT promoter status (19 cell lines); test: 6-point 72 h MTS proliferation assay, WT versus promoter mutant melanoma cell lines; assay type: cell-based, human
Description: as §1, §2

[3] = test system: G138/139A mutant hTERT G-quadruplex; test: CD melting (Tm), G138/139A mutant; assay type: binding, human; settings: 2 equiv
Description: Circular dichroism. Oligomers of WT, G124A, G124/125A, G138/139A and G146A were synthesized and HPSF-purified by MGW Operon, Inc. For CD analysis, oligomers (5 μM) in a buffer containing 10 mM Tris-HCl (pH 7.5) and 140 mM KCl were annealed. For the CD analysis of the complex of oligomers and compounds, oligomers (5 μM) in a buffer containing 10 mM Tris-HCl (pH 7.5) and 5 mM KCl for GTC365 or 1 mM KCl for BRACO-19 were annealed. Oligomers and GTC365 or BRACO-19 were incubated overnight at room temperature. For the full-length of C-rich strand, the oligomer in a buffer of 10 mM Na cacodylate (pH 6.6) was annealed and then incubated with GTC365 overnight. CD analysis was conducted on a Jasco 810 spectropolarimeter (Jasco, Easton, Md.) using a quartz cell with 1 mm of path length, 1 nm of band width, and 1 s of response time for spectra at 20° C. Melting curves for the determination of Tm were obtained by recording ellipticity at 262 nm with increasing temperatures from 25° C. to 95° C. at a rate of 1.6° C./min. Tm of the C-rich strand with GTC365 was obtained from the CD signal at 286 nm within 10-60° C.
CD and DMS footprinting analyses were conducted to characterize the binding of GTC365 and BRACO-19 to the 5-12 G-quadruplex. […] To verify the effects of compounds on the thermal stability of the WT and the mutant G-quadruplexes, Tms were determined by CD. […]

For `N=C(N)NCCCS(=O)(=O)Nc1ccc(Nc2c3ccccc3nc3cc([N+](=O)[O-])ccc23)cc1` [GTC365], the hTERT protein level (hTERT protein) was “downregulated”, the “reduction of hTERT expression (mRNA)” value [1] was 41% and the “response (EC50) in WT versus mutant melanoma cell lines” value [2] was “significant differential response”. The “Tm more increased compared to the WT” value [3] was 6-7 °C.
